# US6228889A, “Methods for treatment of conditions associated with lactosylceramide” (priority 1999, dated 2001)
# Structures can show the parent of a compound that is named as a salt. Where two headings read alike, the source gives them in different places.
# Tests used:
# Mac-1 (CD11b/CD18) = details: for Mac-1 expression on PMNs, other GSL: 100 nmol/L, 20 minutes
# intimal proliferation = assay: Intimal proliferation following balloon angioplasty in rabbits (aorta histology); format: in vivo; details: rabbit aorta; 10 mg/kg intramuscular daily for six weeks after balloon angioplasty
# Source text: A rabbit model of restenosis accompanying an invasive surgical procedure such as balloon angioplasty is preferred. One suitable protocol involves administering to the rabbit a suitable vehicle or vehicle combined with one or more GalT-2 inhibitor compounds of interest. The amount of the GalT-2 inhibitor compound administered will vary depending on several parameters including the extent of damage associated with the surgical procedure of interest. In instances where balloon angioplasty is employed, the rabbit will typically receive a candidate GalT-2 inhibitor compound in a dose (e.g., i.m. or i.p.) of between about 0.5 to 100, preferably 1 to 20 and more preferably about 10 mg/kg body weight of the rabbit. A preferred dosage schedule provides for administration of a GalT-2 inhibitor compound starting 24 hurs prior to conducting an invasive surgical procedure, and then continuing administration of the GalT-2 inhibitor compound for 15 days following the surgical procedure. In other protocols, daily injections of the GalT-2 inhibitor compound may be made for about 2 to 12 weeks following the invasive surgical procedure. […] Subsequently, the rabbits are euthanized and a vessel removed for examination, preferably the aorta The vessel is then fixed with formalin and analyzed for proliferation of vascular endothelia, media and advantitia using standard histological procedures. […]
# ICAM-1 = details: for effect on LacCer mediated stimulation of ICAM-1 expression: 5 μM LacCer 4 hours, DPI 10 μM 30 minutes, NAC 15 mM 30 minutes, PDTC 100 μM 1 hour
# GalT-2 [1] = assay: GalT-2 activity in thoracic aorta of balloon angioplasty rabbits; format: in vivo; details: rabbit thoracic aorta; 10 mg/kg intramuscular, 15 days
# Procedure: (§1) Experiments were performed on rabbits to examine the effects of D-PDMP on aortic stenosis following balloon angioplasty. The rabbits were given intramuscular injection of D-PDMP (10 mg/kg) or vehicle 24 hours prior to balloon angioplasty and this regimen was continued for 15 days. Next, the thoracic aorta was harvested, the glycosphingolipids was measured by HPLC analysis, and GalT-2 activity was measured employing assays described above.
# vascular cells = details: reported in literature; cited from earlier work
# GlcCer, LacCer = assay: Glycosphingolipid levels (HPLC) in thoracic aorta of balloon angioplasty rabbits; format: in vivo; details: rabbit thoracic aorta
# Procedure: as §1
# GlcT-1 = target: T1, GlcT-1 (Homo sapiens, UniProt Q16739); details: reported in literature; cited from earlier work
# T1 sequence (Q16739 1-394): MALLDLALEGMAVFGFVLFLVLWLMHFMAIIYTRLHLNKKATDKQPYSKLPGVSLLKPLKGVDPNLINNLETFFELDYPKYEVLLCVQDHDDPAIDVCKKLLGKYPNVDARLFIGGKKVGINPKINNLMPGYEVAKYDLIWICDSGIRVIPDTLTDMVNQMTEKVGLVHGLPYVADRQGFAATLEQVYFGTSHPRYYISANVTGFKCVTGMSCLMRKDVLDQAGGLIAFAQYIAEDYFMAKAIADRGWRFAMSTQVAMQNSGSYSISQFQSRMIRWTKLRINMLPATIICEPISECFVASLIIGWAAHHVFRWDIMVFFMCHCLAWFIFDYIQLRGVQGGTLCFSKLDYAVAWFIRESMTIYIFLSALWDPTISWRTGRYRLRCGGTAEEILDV
# GalT-2 [2] = assay: GalT-2 activity in endothelial cells; format: cell-based, human
# Procedure: Particularly preferred are GalT-2 assays conducted with the ASMCs and performed in accordance with previously described methods. See e.g., Chatterjee, S., and Castiglione, E. (1987) Biochem. Biophys. Acta, 923:136; and Chatterjee, (1991) S. Biochem. Biophys. Res Comm., 181:554.
# Another preferred assay of the invention includes the following steps a) through d):
# a) culturing a population of LacCer-responsive cells preferably to confluency in lipoprotein-deficient serum medium, e.g., about 1 mg lipoprotein-deficient serum/protein/ml of medium or less;
# b) harvesting the cells preferably in a suitable dispersive buffer, e.g., cacodylate buffer,
# c) incubating the harvested cells preferably with a detectably labeled molecule such as a detectably-labeled nucleoside diphosphate sugar donor such as [^14 C]-UDP-galactose typcially in an amount between about 0. 1 to 100 μCi; and
# d) measuring LacCer formation as indicative of the activity of the GalT-2 enzyme.
# [3] = test system: neutrophil adhesion to Eahy 926 cells; assay: Confocal microscopic study of adhesion of human neutrophils to Eahy 926 endothelial cells; format: cell-based; details: endothelial cells preincubated with 10 μM DPI or 15 mM NAC 30 minutes, then 5 μM LacCer 4 hours
# PMNs [4] = assay: ROM generation by PMNs (DCFH-DA); format: cell-based, human; details: 100 or 200 nmol/L LacCer
# PMNs [5] = assay: Superoxide generation in PMNs (lucigenin); format: cell-based, human; details: SOD 500 U/ml, DPI 10 μM/L, apocyanin 90 μmol/L, about 15 minutes preincubation; 100 nmol LacCer 20 minutes
# Eahy 926 cells = assay: Superoxide production by intact Eahy 926 (lucigenin chemiluminescence); format: cell-based, human; details: 5 μM LacCer; DPI 10 μM 30 minutes, NAC 15 mM 30 minutes, SOD exogenously added (200 U/ml), allopurinol
# [6] = test system: PMN adhesion to unstimulated endothelial cells; assay: PMN-endothelial adhesion assay; format: cell-based, human; details: 100 nmol/L LacCer; anti-CD18 5 μg/ml; quinacrine increasing doses
# Procedure: 12. PMN-Endothelial Adhesion Assay. PMNs were labeled fluorescently by incubation with 5 μmol/L Calcein-AM (Molecular Probes) in calcium-free PBS for 20 minutes at 37° C., washed and resuspended in Hanks' balanced salt solution (Gibco) containing 0.2% bovine serum albumin (BSA). These PMNs were then treated with LacCer (or vehicle, 0.05% DMSO), washed 3 times with PBS and then plated on the unstimulated ec monolayers, which had been grown to confluence in 24-well plates. The PMNs (600 μL of 2×10^6 /mL/well) then were incubated with the ecs for 30 minutes at 37° C. Non-adherent PMNs were then removed by gentle washing 3 times with PBS. The residual adherent PMNs (and ecs) were then lysed using 4mmol/L Zwittergent Calbiochem, La Jolla, Calif.) and the plates read on a fluorescence plate reader (Millipore) at EX 480 nm/EM 530 nm. The number of adherent PMNs were expressed as number of PMN/mm^2 ec monolayer, based on the mean fluorescent intensity of each PMN, as determined from a standard curve. 13. Additional Methods. LacCer, ceramide and […] (all from Sigma) were prepared as described in examples below, and used as putative agonists for the stimulation of PMN adhesion molecule expression, assayed by FACScan. […]
# [7] = inhibitor 20 minutes, then 100 nmol/L LacCer 20 minutes, BPB 10 μmol/L
# [8] = endothelial cells preincubated with D-PDMP
# [9] = balloon angioplasty, 10 mg/kg intramuscular from 24 hours prior, continued for 15 days
# [10] = endothelial cells, TNF-α as stimulant
molecule,measurement,setting,value
CC(=O)OCOC(=O)CN(CC(=O)OCOC(C)=O)c1ccccc1OCCOc1ccccc1N(CC(=O)OCOC(C)=O)CC(=O)OCOC(C)=O [BAPTA/AM],effect on LacCer-stimulated Mac-1 upregulation on PMNs,Mac-1 (CD11b/CD18); [7],did not inhibit
"CCCCCCCCCC(=O)N[C@H](CN1CCOCC1)[C@H](O)c1ccccc1 [D-PDMP, (1R, 2R)-1-phenyl-2-decanoylamino-3-morpholino-1-propanol]",intimal proliferation at the site of balloon angioplasty,intimal proliferation,complete absence of intimal proliferation
same,ICAM-1 expression induced by TNF-α,ICAM-1; [8],concentration-dependent decrease
same,decrease of GalT-2 activity versus vehicle,GalT-2 [1],~ 1.7 fold
same,proliferation of vascular cells,vascular cells,reduces
same,level of GicCer and LacCer,"GlcCer, LacCer; 10 mg/kg intramuscular, 15 days",decrease significantly
same,GSL Concentration GlcCer,"GlcCer, LacCer; [9]",6 μg/gm wet weight
same,GSL Concentration LacCer,"GlcCer, LacCer; [9]",10 μg/gm wet weight
same,inhibition of GlcT-1,GlcT-1,inhibits
same,GalT-2 activity induced by TNF-α,GalT-2 [2]; [8],concentration-dependent decrease
"c1ccc2c(c1)[I+]c1ccccc1-2 [DPI, diphenyleneiodonium chloride]",effect on LacCer-induced neutrophil adhesion,[3],attenuated
same,effect on LacCer mediated stimulation of ICAM-1 expression,ICAM-1,inhibited
same,effect on neutrophil ROM generation induced by LacCer,PMNs [4],completely blocked
same,effect on LacCer induced superoxide generation in PMNs,PMNs [5],relatively less inhibitory
same,effect on LacCer induced generation of O2- in endothelial cells,Eahy 926 cells,failed to respond
same,effect on LacCer-stimulated Mac-1 upregulation on PMNs,Mac-1 (CD11b/CD18),did not inhibit
same,effect on NADPH oxidase activity in membrane preparations of LacCer stimulated cells,NADPH oxidase,attenuated
"CC(=O)N[C@@H](CS)C(=O)O [NAC, N-acetylcysteine]",effect on LacCer-induced neutrophil adhesion,[3],attenuated
same,effect on LacCer mediated stimulation of ICAM-1 expression,ICAM-1,inhibited
same,effect on neutrophil ROM generation induced by LacCer,PMNs [4],inhibited
same,effect on LacCer induced generation of O2- in endothelial cells,Eahy 926 cells,reduced
same,effect on LacCer-stimulated Mac-1 upregulation on PMNs,Mac-1 (CD11b/CD18); [7],did not inhibit
S=C(S)N1CCCC1 [PDTC],effect on LacCer mediated stimulation of ICAM-1 expression,ICAM-1,inhibited
Cc1nnc2n1-c1sc(CCC(=O)N3CCOCC3)cc1C(c1ccccc1Cl)=NC2 [WEB 2086],effect on LacCer-stimulated Mac-1 upregulation on PMNs,Mac-1 (CD11b/CD18),No significant inhibition
Oc1ncnc2[nH]ncc12 [allopurinol],effect on LacCer induced generation of O2- in endothelial cells,Eahy 926 cells,failed to inhibit
COc1cc(C(C)=O)ccc1O [apocyanin],effect on LacCer induced superoxide generation in PMNs,PMNs [5],relatively less inhibitory
O=c1c(-c2ccc(O)cc2)coc2cc(O)cc(O)c12 [genistein],effect on LacCer-stimulated Mac-1 upregulation on PMNs,Mac-1 (CD11b/CD18); [7],did not inhibit
"CCN(CC)CCCC(C)Nc1c2ccc(Cl)cc2nc2ccc(OC)cc12 (centres unmarked) [quinacrine, quinacrine dihydrochloride]",effect on LacCer induced PMN adhesion,[6],inhibited
same,effect on LacCer-stimulated Mac-1 upregulation on PMNs,Mac-1 (CD11b/CD18); [7],did block
C=C(C)[C@H]1Cc2c(ccc3c2O[C@@H]2COc4cc(OC)c(OC)cc4[C@@H]2C3=O)O1 [rotenone],effect on NADPH oxidase activity in membrane preparations of LacCer stimulated cells,"NADPH oxidase; DPI 10 μM 30 minutes, rotenone 1 mM",did not inhibit
CN[C@@H]1C[C@H]2O[C@@](C)([C@@H]1OC)n1c3ccccc3c3c4c(c5c6ccccc6n2c5c31)C(=O)NC4 [staurosporine],effect on LacCer-stimulated Mac-1 upregulation on PMNs,Mac-1 (CD11b/CD18),did not inhibit
TNF-α,stimulation of ICAM-1 expression,ICAM-1; [10],concentration-dependent stimulation
same,increase in GalT-2 activity,GalT-2 [2]; [10],1.7 fold
ceramide,"Mac-1 expression on PMNs, other GSL",Mac-1 (CD11b/CD18),did not alter
glucosylceramide [GIcCer],"Mac-1 expression on PMNs, other GSL",Mac-1 (CD11b/CD18),did not alter
